Experimental findings from ChEMBL document CHEMBL1134795 (J Med Chem, 2001) are described below.

pIC50, pKi: −log10 of the molar value.

Test system in the first data set: not listed separately
As to the kind of experiment: terminal elimination half-life for the compound was evaluated after oral administration of a dose of 1 mg/kg in a group of eight conscious dogs. Format: ADME, organism-based, Canis lupus familiaris. Also noted: dose 1 mg/kg, route oral. To be noted: dog, in vivo.
As to `CCOC(=O)C[C@H](NC(=O)CN1C(=O)N[C@@](C)(c2ccc(C(=N)N)cc2)C1=O)c1ccccc1.O=C(O)/C=C\C(=O)O` [CARAFIBAN MALEATE], the half-life was 9.9 h.

In the next data set the target is T1, Integrin alpha-IIb/beta-3 (Homo sapiens, UniProt P05106+P08514). Put plainly: Inhibition of 125 I-fibrinogen binding to glycoprotein IIb/IIIa receptor. In kind it is protein-complex assay.
T1 sequence (P05106 27-788 limits assumed): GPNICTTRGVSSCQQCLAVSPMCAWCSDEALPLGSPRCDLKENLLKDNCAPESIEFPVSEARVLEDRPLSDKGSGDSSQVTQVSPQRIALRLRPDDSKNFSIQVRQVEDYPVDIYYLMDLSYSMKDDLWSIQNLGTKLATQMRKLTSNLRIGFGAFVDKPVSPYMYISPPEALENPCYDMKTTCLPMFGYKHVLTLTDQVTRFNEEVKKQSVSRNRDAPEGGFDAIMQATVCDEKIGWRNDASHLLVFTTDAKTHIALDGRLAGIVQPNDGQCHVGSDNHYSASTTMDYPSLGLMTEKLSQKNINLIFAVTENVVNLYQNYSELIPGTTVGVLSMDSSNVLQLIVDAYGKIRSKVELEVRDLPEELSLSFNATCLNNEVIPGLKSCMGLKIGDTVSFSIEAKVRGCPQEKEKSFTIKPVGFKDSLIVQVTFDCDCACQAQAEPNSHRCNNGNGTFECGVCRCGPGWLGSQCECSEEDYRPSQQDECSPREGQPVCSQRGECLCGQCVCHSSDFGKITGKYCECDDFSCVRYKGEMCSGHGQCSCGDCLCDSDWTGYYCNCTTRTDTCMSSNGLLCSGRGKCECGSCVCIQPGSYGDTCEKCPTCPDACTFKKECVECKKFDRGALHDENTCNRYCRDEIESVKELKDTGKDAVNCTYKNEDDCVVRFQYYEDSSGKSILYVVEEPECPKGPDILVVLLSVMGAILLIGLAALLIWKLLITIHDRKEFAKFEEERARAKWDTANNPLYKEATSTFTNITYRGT
T1 sequence (P08514 32-887 limits assumed): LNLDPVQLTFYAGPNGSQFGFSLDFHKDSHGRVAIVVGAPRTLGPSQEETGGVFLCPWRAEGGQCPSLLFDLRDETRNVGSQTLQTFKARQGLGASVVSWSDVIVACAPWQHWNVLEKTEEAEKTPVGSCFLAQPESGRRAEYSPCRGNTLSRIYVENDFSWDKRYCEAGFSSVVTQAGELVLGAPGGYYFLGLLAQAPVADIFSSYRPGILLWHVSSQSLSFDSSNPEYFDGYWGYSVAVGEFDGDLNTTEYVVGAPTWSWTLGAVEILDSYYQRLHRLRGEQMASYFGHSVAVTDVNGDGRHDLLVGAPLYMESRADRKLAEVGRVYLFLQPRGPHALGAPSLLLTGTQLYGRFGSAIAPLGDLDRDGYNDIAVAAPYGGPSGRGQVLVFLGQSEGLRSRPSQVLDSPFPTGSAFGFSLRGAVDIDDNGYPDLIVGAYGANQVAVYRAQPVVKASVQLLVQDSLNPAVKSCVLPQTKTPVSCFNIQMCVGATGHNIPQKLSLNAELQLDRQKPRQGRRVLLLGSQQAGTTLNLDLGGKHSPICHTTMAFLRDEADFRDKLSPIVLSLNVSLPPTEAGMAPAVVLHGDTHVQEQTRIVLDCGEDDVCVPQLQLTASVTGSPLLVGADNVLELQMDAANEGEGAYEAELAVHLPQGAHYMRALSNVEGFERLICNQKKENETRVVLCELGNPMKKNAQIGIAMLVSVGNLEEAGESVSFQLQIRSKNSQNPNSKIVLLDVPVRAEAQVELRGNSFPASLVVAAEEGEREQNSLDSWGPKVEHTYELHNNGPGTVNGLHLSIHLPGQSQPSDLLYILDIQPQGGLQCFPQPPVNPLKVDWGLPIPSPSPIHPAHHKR
T1 sequence (P08514 891-1039 limits assumed): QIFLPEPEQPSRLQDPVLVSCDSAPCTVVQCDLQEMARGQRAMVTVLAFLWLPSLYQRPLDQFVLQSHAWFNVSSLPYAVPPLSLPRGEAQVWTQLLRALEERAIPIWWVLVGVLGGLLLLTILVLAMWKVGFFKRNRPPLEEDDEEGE
Settings: not given
`N=C(N)Nc1ccc(C2NC(=O)N(CC(=O)N[C@@H](CC(=O)O)C(=O)N[C@H](C(=O)O)c3ccccc3)C2=O)cc1` (stereo partly drawn) gave a pKi of 7.52.

The next data set is filed under the species Homo sapiens. As to the kind of experiment: Inhibition of human platelet (isolated from PRP) aggregation. In kind it is functional.
Settings: not given
`CC1(c2ccc(C(=N)N)cc2)NC(=O)N(CC(=O)N[C@@H](CC(=O)O)C(=O)N[C@H](C(=O)O)c2ccccc2)C1=O` (stereo in doubt; 17): the pIC50 was 6.10.
On the same count and under the same terms, to `CC1(c2ccc(C(=N)N)cc2)NC(=O)N(CC(=O)N[C@@H](CC(=O)O)C(=O)N[C@H](C(=O)O)c2ccccc2)C1=O` (stereo in doubt; 16) belongs 7.40.

The data set is the same for the next values; noted with them: Homo sapiens.
Regarding `N=C(N)c1ccc(C2(Cc3ccccc3)NC(=O)N(CC(=O)N[C@@H](CC(=O)O)C(=O)N[C@H](C(=O)O)c3ccccc3)C2=O)cc1` (stereo partly drawn), the pIC50 was 7.30.
In turn, `N=C(N)NCCC[C@@H]1NC(=O)N(CC(=O)N[C@@H](CC(=O)O)C(=O)N[C@@H](Cc2ccccc2)C(=O)O)C1=O` gave a pIC50 of 5.00.
As for `CC(C)[C@H](NC(=O)[C@H](CC(=O)O)NC(=O)CN1C(=O)N[C@@H](CCCN=C(N)N)C1=O)C(=O)O`, the negative-log IC50 (pIC50) was 6.00.
The compound `N=C(N)Nc1ccc(C2NC(=O)N(CC(=O)N[C@@H](CC(=O)O)C(=O)N[C@H](C(=O)O)c3ccccc3)C2=O)cc1` (stereo partly drawn) had a negative logarithm of the IC50 (pIC50) of 6.70.
`N=C(N)Nc1ccc(CC2NC(=O)N(CC(=O)N[C@@H](CC(=O)O)C(=O)N[C@H](C(=O)O)c3ccccc3)C2=O)cc1` (stereo partly drawn) had a pIC50 of 5.26.
Still for that read-out and setting: to `COC(=O)[C@@H](NC(=O)[C@H](CC(=O)O)NC(=O)CN1C(=O)NC(C)(c2ccc(C(=N)N)cc2)C1=O)c1ccccc1` (stereo partly drawn) belongs 7.15; to `CC1(c2ccc(NC(=N)N)cc2)NC(=O)N(CC(=O)N[C@@H](CC(=O)O)C(=O)N[C@H](C(=O)O)c2ccccc2)C1=O` (stereo partly drawn), 6.82.
Turning to `N=C(N)Nc1cccc(C2NC(=O)N(CC(=O)N[C@@H](CC(=O)O)C(=O)N[C@H](C(=O)O)c3ccccc3)C2=O)c1` (stereo partly drawn), the negative logarithm of the IC50 (pIC50) is 5.22. Against the preceding compound, the pIC50 is 1.60 log units lower.
Turning to `N=C(N)c1ccc(CC2NC(=O)N(CC(=O)N[C@@H](CC(=O)O)C(=O)N[C@H](C(=O)O)c3ccccc3)C2=O)cc1` (stereo partly drawn), the pIC50 was 6.70.
Same read-out and setting: to `CCC1(c2ccc(C(=N)N)cc2)NC(=O)N(CC(=O)N[C@@H](CC(=O)O)C(=O)N[C@H](C(=O)O)c2ccccc2)C1=O` (stereo partly drawn) belongs 7.60.
`N=C(N)c1ccc(/C=C2/NC(=O)N(CC(=O)N[C@@H](CC(=O)O)C(=O)N[C@H](C(=O)O)c3ccccc3)C2=O)cc1` showed a negative logarithm of the IC50 (pIC50) of 6.82.
`CC1(c2ccc(C(=N)N)cc2)NC(=O)N(CC(=O)N[C@@H](CC(=O)O)C(=O)NC2C3CC4CC(C3)CC2C4)C1=O` (stereo partly drawn) had a pIC50 of 7.60.
For the compound `N=C(N)NCCC[C@@H]1NC(=O)N(CC(=O)N[C@@H](CC(=O)O)C(=O)N[C@H](C(=O)O)C2CCCCC2)C1=O`, the pIC50 was 5.82. Against the preceding compound, the pIC50 is 1.78 log units lower.
In turn, `CC1(c2ccc(CN)cc2)NC(=O)N(CC(=O)N[C@@H](CC(=O)O)C(=O)N[C@H](C(=O)O)c2ccccc2)C1=O` (stereo partly drawn) gave a pIC50 of 6.82.
The same measure, in the same setting: to `CCN1C(=O)N(CC(=O)NC(CC(=O)O)c2ccccc2)C(=O)C1(C)c1ccc(C(=N)N)cc1` (stereo not drawn) belongs 6.30; to `N=C(N)c1ccc(C2(C3CC3)NC(=O)N(CC(=O)N[C@@H](CC(=O)O)C(=O)N[C@H](C(=O)O)c3ccccc3)C2=O)cc1` (stereo partly drawn), 7.70; to `CC(C)C[C@H](NC(=O)[C@H](CC(=O)O)NC(=O)CN1C(=O)N[C@@H](CCCN=C(N)N)C1=O)C(=O)O`, 5.52.
Regarding `CC1(c2ccc(C(=N)N)cc2)NC(=O)N(CC(=O)NCC(NC(=O)OCc2ccccc2)C(=O)O)C1=O` (stereo not drawn), the pIC50 is 6.52.

The target of a further data set is T1, Integrin alpha-IIb/beta-3. Put plainly: Inhibition of 125 I-fibrinogen binding to ADP-activated gel filtered human platelets.
Settings: not given
`N=C(N)NCCC[C@@H]1NC(=O)N(CC(=O)N[C@@H](CC(=O)O)C(=O)N[C@H](C(=O)O)c2ccccc2)C1=O` gave a pKi of 6.92.

What is called half-life is the time needed for the level to fall by half in the phase considered. What is called pKi is −log10 of the Ki, conventionally taken in molar units. By pIC50 is commonly meant −log10 of the IC50, conventionally taken in molar units.
